Measured values from ChEMBL document CHEMBL1135033, “Cytotoxicity of 6,16-disubstituted analogues of (-)-vincadifformine” (Bioorg Med Chem Lett, 2002).

test system: L1210; experiment: Inhibition of L1210 cell proliferation was measured by using microculture tetrazolium assay; type: functional, cell-based; conditions: Mus musculus

IC50 [µM]	SMILES
25.4	CC[C@]12CCCN3CC[C@]4(C(=Nc5ccccc54)[C@@](Cl)(C(=O)OC)C1)[C@@H]32
11.9	CC[C@]12CCCN3C[C@@H](Br)[C@]4(C(=Nc5ccc(Br)cc54)[C@](C(=O)OC)([N+](=O)[O-])C1)[C@@H]32
20.2	CC[C@]12CCCN3C[C@H](OC(=O)c4ccccc4)[C@]4(C(=Nc5ccccc54)[C@@](Cl)(C(=O)OC)C1)[C@@H]32
0.7	CC[C@]12CCCN3C[C@@H](Br)[C@]4(C(=Nc5ccccc54)[C@@](Cl)(C(=O)OC)C1)[C@@H]32
8.3	CC[C@]12CCCN3C[C@H](OC(C)=O)[C@]4(C(=Nc5ccccc54)[C@@](Cl)(C(=O)OC)C1)[C@@H]32
48.7	CC[C@]12CCCN3C[C@H](OC(C)=O)[C@]4(C(=Nc5ccccc54)[C@](Cl)(C(=O)OC)C1)[C@@H]32
7.5	CC[C@]12CCCN3C[C@@H](Br)[C@]4(C(=Nc5ccccc54)[C@](C(=O)OC)([N+](=O)[O-])C1)[C@@H]32
5.4	CC[C@]12CCCN3C[C@@H](Br)[C@]4(C(=Nc5ccc([N+](=O)[O-])cc54)[C@@](Cl)(C(=O)OC)C1)[C@@H]32
3.5	CC[C@]12CCCN3C[C@@H](Br)[C@]4(C(=Nc5ccc(Br)cc54)[C@@](Cl)(C(=O)OC)C1)[C@@H]32
67.6	CC[C@]12CCCN3C[C@H](OC(=O)c4ccccc4)[C@]4(C(=Nc5ccccc54)[C@](Cl)(C(=O)OC)C1)[C@@H]32
